Assay [1] has as its system Diabrotica undecimrunctata howardi, 3rd instar southern corn rootworm. Put plainly: Evaluation against 3rd instar southern corn rootworm, treated talc/soil jar test, mortality after 5 days. It counts as in vivo, Diabrotica undecimpunctata howardi. Particulars: mortality rating 0-9 after 5 days in soil. The procedure:
(§1) Test solutions are prepared by dissolving the test compound in a 35% acetone in water mixture to give a concentration of 10,000 ppm. Subsequent dilutions are made with water as needed.
Diabrotica undecimrunctata howardi, 3rd instar southern corn rootworm
(§2) One cc of fine talc is placed in a 30 mL wide-mouth screw-top glass jar. One mL of the appropriate acetone test solution is pipetted onto the talc so as to provide 1.25 mg, 0.25 mg or 0.025 mg of active ingredient per jar. The jars are set under a gentle air flow until the acetone is evaporated. The dried talc is loosened, 1 cc of millet seed is added to serve as food for the insects and 25 mL of moist soil is added to each jar. The jar is capped and the contents thoroughly mixed mechanically. Following this, ten 3rd instar rootworms are added to each jar and the jars are loosely capped to allow air exchange for the larvae. The treatments are held for 5 days when mortality counts are made. Missing larvae are presumed dead, since they decompose rapidly and can not be found.

Assay [2] relates to Diabrotica virgifera virgifera Leconte, 3rd instar western corn rootworm. Put plainly: Evaluation against 3rd instar western corn rootworm, treated talc/soil jar test, mortality after 5 days. Particulars: mortality rating 0-9 after 5 days in soil. It counts as in vivo. The protocol: as §1
Diabrotica virgifera virgifera Leconte, 3rd instar western corn rootworm
as §2

Consider `CC(C)[S+]([O-])C(C)(C)C(=O)Nc1ccc(C(F)(F)F)cc1` (stereo not drawn) [Compound 12, α,α,α-Trifluoro-2-(isopropylsulfinyl)-2-methyl-p-propionotoluidide], for which, in assay [1], the “Southern Corn Rootworm (1 ppm) rating” value stood at 8.0, the “Southern Corn Rootworm (10 ppm) rating” value turned out to be 9.0 and the “Southern Corn Rootworm (50 ppm) rating” value is 9.0. The “Western Corn Rootworm (1 ppm) rating” value in assay [2] (1 ppm) turned out to be 0.0. In assay [2] (10 ppm), the “Western Corn Rootworm (10 ppm) rating” value amounted to 0.0. Also, in assay [2] (50 ppm), the “Western Corn Rootworm (50 ppm) rating” value is listed as 9.0.

With `CC(C)C(=O)C(C)(C)C(=O)N(C)c1ccc(Cl)cc1` [Compound 2, 4′-Chloro-N,2,2,4-tetramethyl-3-oxo-valeranilide], in assay [1], the “Southern Corn Rootworm (1 ppm) rating” value is 0.0, the “Southern Corn Rootworm (10 ppm) rating” value is listed as 0.0 and the “Southern Corn Rootworm (50 ppm) rating” value stood at 3.5.

With `CC(C)C(=O)C(C)(C)C(=O)N(C(=O)c1ccc(Cl)cc1)c1ccc(C(F)(F)F)cc1` [Compound 7, 4-Chloro-α,α,α-trifluoro-N-(2,2,4-trimethyl-3 oxovaleryl)-p-benzotoluidide], in assay [1], the “Southern Corn Rootworm (1 ppm) rating” value is reported as 0.0, the “Southern Corn Rootworm (10 ppm) rating” value came out at 9.0 and the “Southern Corn Rootworm (50 ppm) rating” value is 9.0.

Take `CC(C)C(=O)C(C)(C)C(=O)Nc1ccc(C(F)(F)F)cc1` [Compound 1, α,α,α-Trifluoro-2,2,4-trimethyl-3-oxo-p-valerotoluidide]: in assay [1], the “Southern Corn Rootworm (1 ppm) rating” value is 9.0, the “Southern Corn Rootworm (10 ppm) rating” value stood at 9.0 and the “Southern Corn Rootworm (50 ppm) rating” value is 9.0.

On to `CC(C)(C(=O)Nc1ccc(C(F)(F)F)cc1)C(=O)C(C)(C)c1ccccc1` [Compound 11, α,α,α-Trifluoro-2,2,4-trimethyl-3-oxo-4-phenyl-p-valerotoluidide], for which the “Southern Corn Rootworm (50 ppm) rating” value in assay [1] is 6.0.

Consider `CC(C)SC(C)(C)C(=O)Nc1ccc(C(F)(F)F)cc1` [Compound 5, α,α,α-Trifluoro-2-(isopropylthio)-2-methyl-p-propionotoluidide], for which, in assay [1], the “Southern Corn Rootworm (1 ppm) rating” value amounted to 0.0, the “Southern Corn Rootworm (10 ppm) rating” value came out at 0.0 and the “Southern Corn Rootworm (50 ppm) rating” value is given as 9.0.

With `CC(C)S(=O)(=O)C(C)(C)C(=O)Nc1ccc(C(F)(F)F)cc1` [Compound 13, α,α,α-Trifluoro-2-(isopropylsulfonyl)-2-methyl-p-propionotoluidide], in assay [1], the “Southern Corn Rootworm (1 ppm) rating” value is on record as 3.0, the “Southern Corn Rootworm (10 ppm) rating” value was determined as 9.0 and the “Southern Corn Rootworm (50 ppm) rating” value was 9.0.

As for `CC(C)C(=O)C(C)(C)C(=O)N(C(=O)c1ccc(C(F)(F)F)cc1)c1ccc(C(F)(F)F)cc1` [Compound 6, α,α,α,α′,α′,α′-Hexafluoro-N-(2,2,4-trimethyl-3-oxovaleryl)-p-tolu-p-toluidide], in assay [1], the “Southern Corn Rootworm (1 ppm) rating” value amounted to 2.0, the “Southern Corn Rootworm (10 ppm) rating” value came out at 9.0 and the “Southern Corn Rootworm (50 ppm) rating” value was found to be 9.0.

Consider `CC(C)/C(=N\O)C(C)(C)C(=O)Nc1ccc(C(F)(F)F)cc1` [Compound 10, α,α,α-Trifluoro-2,2,4-trimethyl-3-oxo-p-valerotoluidide, 3-oxime], for which the “Southern Corn Rootworm (50 ppm) rating” value in assay [1] turned out to be 7.0.

Turning to `CC(C)C(=O)C(C)(C)C(=O)N(C(=O)c1c(F)cccc1F)c1ccc(C(F)(F)F)cc1` [Compound 8, α,α,α,2,6-Pentafluoro-N-(2,2,4#trimethyl-3 oxovaleryl)-p-benzotoluidide], in assay [1], the “Southern Corn Rootworm (1 ppm) rating” value was 0.0, the “Southern Corn Rootworm (10 ppm) rating” value is listed as 0.0 and the “Southern Corn Rootworm (50 ppm) rating” value is listed as 4.0.

Source of the values: patent US6359009B1, “Substituted anilide insecticidal agents” (BASF Aktiengesellschaft, priority 1998, dated 2002).
